The target of the assay is T1, hKv1.5 channel (Homo sapiens, UniProt P22460).
T1 construct: expressed in transfected cells; host or cells: mouse Ltk- cells (pMSVneo vector, G418 selection)
Kind of assay: Block of hKv1.5 channel currents expressed in Ltk-cells (whole cell patch clamp). The class given is cell-based. On the procedure: Cell line selectively expressing a specific cardiac K^+ channel gene was prepared according to the method described in the thesis (Yang, et al., Inhibition of cardiac potassium currents by the vesnarinone analog OPC-18790: comparison with quinidine and dofetilide. J Pharmacol Exp Ther. 1997, 280: 1170-1175; Kwak, et al., Phosphorylation is required for alteration of Kv1.5 K^+ channel function by the Kvbeta 1.3 subunit. J Biol Chem 1999, 274: 25355-25361).
First, cDNAs for human cardiac K^+ channel genes such as hKv 1.5 and HERG were subcloned into pMSVneo which contain dexamethasone-inducible murine mammary tumor virus promoter controlling transcription of the inserted cDNA and a gene conferring neomycin resistance driven by the SV40 early promotor. The cDNA-containing expression vector was transfected into mouse Ltk-cells with lipofectamine. After 24 hours, the cells selection with […] of G418 was performed for 2 weeks or until discrete foci formed. Individual foci were isolated, maintained in 0.25 μg/ml of G418, and screened by Norhtern analysis and electrophysiological analysis. Transfected cells were cultured in Dulbeco's modified Eagle medium (DMEM) supplemented with 10% horse serum and 0.25 μg/ml of G418, under 5% CO2. Transiently transfected cells were cultured in DMEM media supplemented with only 10% horse serum, differently from stable cell lines.
Currents in human atrial myocytes and cell lines were recorded by using the whole cell configuration of the gigaohm-seal patch clamp techniques (Kwak, et al., Phosphorylation is required for alteration of Kv1.5 K^+ channel function by the Kvbeta 1.3 subunit. J Biol Chem 1999, 274: 25355-25361). First, electrical signals were amplified with a patch clamp amplifier (Axon Instruments, Axopatch-1D, Foster, USA). Currents were digitized by a signal converter (Digidata 1200, Axon Instruments) and stored on the hard disk of a computer. The micropipette with a resistance of 1˜2MΩ (Kimax-51, 1.5=14 1.8×10 mm) for current recording, was pulled out by a 2-stage pipette puller (Narishige, PP-83). The intracellular pipette-filling solution for whole cell mode contained 100 mM KCl, 10 mM HEPES, 5 mM K4BAPTA, 5 mM K2ATP and 1 mM MgCl2 (pH 7.2). The extracellular solution contained 130 mM NaCl, 4 mM KCl, 1.8 mM CaCl2, 1 mM MgCl2, 10 mM HEPES and 10 mM glucose (pH 7.35).
The current traces were recorded with a depolarizing pulse of +50 mV from a holding potential of −80 mV, followed by a repolarizing pulse of −50 mV in the Ltk-cells. To observe the concentration-dependent block of hKv1.5 channel currents by each compound, steady-state currents taken at the end of the depolarizing pulse of +50 mV were normalized to the control obtained in the absence of each compound
FIG. 1e is concentration-response curves showing the relative steady-state currents obtained at the end of the depolarizing pulse against the concentration of each compound. Data were fitted with a Hill equation.
IC50 values (50% inhibitory concentration, μM) of compounds 1˜14 on the hKv1.5 channel currents were determined, and Hill values were calculated from the concentration-response curves of the respective compounds using the Hill equation.
In general terms: Patch clamp records ionic current or voltage across a cell membrane.

Usually IC50 stands for the concentration that gives 50% inhibition. High values mean weaker potency in that assay, low ones greater potency in that assay.

T1 sequence (P22460 whole entry): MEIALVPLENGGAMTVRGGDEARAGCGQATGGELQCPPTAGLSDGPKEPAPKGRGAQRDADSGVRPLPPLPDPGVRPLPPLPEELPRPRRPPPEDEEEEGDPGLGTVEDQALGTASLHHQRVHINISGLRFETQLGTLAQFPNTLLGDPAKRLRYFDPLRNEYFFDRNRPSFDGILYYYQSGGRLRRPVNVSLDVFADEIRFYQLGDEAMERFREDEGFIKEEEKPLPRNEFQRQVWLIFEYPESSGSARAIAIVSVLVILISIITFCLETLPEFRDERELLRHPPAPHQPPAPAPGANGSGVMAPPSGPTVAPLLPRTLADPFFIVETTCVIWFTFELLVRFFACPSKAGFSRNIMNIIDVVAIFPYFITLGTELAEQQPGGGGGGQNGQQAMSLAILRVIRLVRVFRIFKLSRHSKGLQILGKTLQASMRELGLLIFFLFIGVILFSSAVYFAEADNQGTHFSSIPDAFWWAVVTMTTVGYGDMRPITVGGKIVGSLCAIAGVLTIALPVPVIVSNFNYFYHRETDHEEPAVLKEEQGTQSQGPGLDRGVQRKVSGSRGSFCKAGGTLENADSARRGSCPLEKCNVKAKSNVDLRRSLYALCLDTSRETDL

`CN1Cc2c(ccc3c2OCO3)[C@@H]2[C@H]1c1cc3c(cc1C[C@@H]2O)OCO3` [Compound 1, [5bR-(5bα,6β,12bα)]-5b,6,7,12b,13, 14-hexahydro-13-methyl[1,3]benzodioxolo[5,6c]-1,3-dioxolo[4,5-i]phenanthridin-6-ol] showed a Hill value (from concentration-response curves using the Hill equation) of 1.07. For the setting “hKv1.5 expressed in Ltk-cells, FIGS. 1a to 1e”, the “type of hKv1.5 block” value is “predominantly blocked the open ion channels”. Moreover, under “hKv1.5 expressed in Ltk-cells, FIGS. 1a to 1d”, the “effect on the hKv1.5 channel currents” value was “concentration-dependent inhibitory effects”. Besides, the IC50 (hKv1.5 expressed in Ltk-cells, steady-state current at end of +50 mV depolarizing pulse, holding -80 mV) worked out at 11.5 ± 3.1 µM.
